Measured values published in patent US20250099426A1, “Indolium Compounds for Treating Cancer” (Emory University, priority 2022, published 2025).
Entries after “also recorded” stand apart in the source; their conditions may differ.

Key:
EphA3 [1] = assay: Immunohistochemistry of in vivo LM36R tumor model, EphA3; parameters: species or system mice; settings: treated LM36R tumor tissue versus controls
Procedure: (§1) Tumor samples were resected and embedded in formalin, processed, and stained. Formalin-fixed and paraffin-embedded tissue sections from each group were cut to a 5-μm thickness and air-dried. Processing was performed using Ventana DISCOVERY™ Ultra automated immunohistochemistry stainer. Slides were deparaffinized with EZ-Prep (#05279771001) and then were antigen retrieved for 64 minutes with CC1 reagent (#950-500). Rabbit anti-Eph receptor A3 (EphA3) antibody (ab126261) diluted at 1:50, Rabbit anti-Nkx3.2 (#PA5-21108 diluted at 1:500) and mouse anti-Rbl antibody (554136) diluted at 1:100 were applied and incubated for 40 minutes. For the first two stains, DISCOVERY™ OmniMap anti-Rb HRP was applied and incubated for 12 minutes, and the detection was completed in combination with DISCOVERY™ ChromoMap DAB kit for anti-EphA3 antibody and DISCOVERY™ Red kit for anti-Nkx3.2 anti-body, as per manufacturer recommendations. For the Rbl stain, DISCOVERY™ OmniMap anti-mouse HRP was applied and incubated for 12 minutes, and the detection was completed in combination with DISCOVERY™ ChromoMap DAB kit. Slides were counterstained with hematoxylin for 8 minutes. Slides were then dehydrated, cover-slipped, and evaluated by light microscopy. Whole imaging was performed.

LM36R cells = assay: Proliferation assay / cell viability (AlamarBlue); type: cell-based; settings: Indolium 1 1 μM, 24 hours
Procedure: Lanes: 1) Control 2) Indolium 1 (1 μM) 3) MEK Inhibitor U0126 (10 μM) 4) Akt Inhibitor II (10 μM) 5) Indolium 1 (1 μM)+MEK Inhibitor U0126 (10 μM) 6) Indolium 1+Akt Inhibitor II (10 μM). *=Statistically lower cell viability compared to control (p<0.05). **=Statistically lower cell viability compared to control and statistically higher cell viability than Indolium 1 treatment (lane 2) alone. Inhibition of MAPK and Akt reverses cell death caused by Indolium 1.
The induction of MAPK and Akt seem to contribute to reduction in tumor size observed in mice treated with Indolium 1. In a cell viability assay, cells were treated with Indolium 1, MEK inhibitor (inhibiting the MAPK signaling pathway directly upstream of MAPK), and Akt inhibitor. Cells were also treated with a combination of Indolium 1 and each inhibitor. […]
A cell proliferation assay was used to study the effect of Indolium 1 in vitro. […] After 4 hours, the plate was read following manufacturer's instructions and the data was processed using Softmax™ Pro software (Molecular Devices). An unpaired two-tailed Student's t-test was performed to determine the significant difference between the control and each treatment group, along with between the Indolium 1 only versus Indolium 1 plus MEK/Akt inhibitor, with significance determined at p<0.05.

Nkx3.2 = assay: Immunohistochemistry of in vivo LM36R tumor model, Nkx3.2; parameters: species or system mice; settings: treated LM36R tumor versus control
Procedure: as §1

Rb [2] = assay: Western blotting of treated LM36R cells, Rb; type: cell-based; settings: 0.1-5 μM Indolium 1, 24 hours
Procedure: (§2) LM36R cells were grown in six T75 flasks. Upon reaching 70% confluence, cell media was replaced with media with concentrations of 0, 0.1, 0.5, 1, 2.5, and 5 μM Indolium 1. After 24 hours, cells were lysed in RIPA buffer (25 mM Tris-HCl, 150 mM NaCl, 1% NP-40, 1% sodium deoxycholate, 0.1% sodium dodecyl sulfate, pH 7.6) supplemented with HALT™ protease phosphatase inhibitor cocktails and 0.5 M EDTA solution. Cell lysates incubated on ice for 30 minutes, and then centrifuged at 16,000×g at 4° C. for 20 minutes. Protein concentration was determined using the Pierce BCA Protein Assay Kit™ and then normalized. NuPage™ LDS Sample Buffer (4×) and beta-mercaptoethanol were added to the samples, which were subsequently boiled. Sample protein (40 μg) of were loaded into each well of NuPAGE™ 4-12% Bis-Tris precast gels in MOPS buffer against Precision Plus™ Protein Dual Color Standards. Proteins were transferred onto polyvinylidene difluoride membrane using Transblot Turbo™ system. Membrane was blocked for 1 hour at room temperature in 5% non-fat dry milk in 0.1% Tween-Tris-Buffered Saline and probed with Rb (#PA5-27215) pMAPK (9101S), pAkt (#4060S), and beta-tubulin (#2146S) antibodies at 1:1000 dilutions in 5% bovine serum albumin at 4° C. overnight. […] Antibody signal was detected using SuperSignal™ West Pico chemiluminescence substrate with Medical X-Ray Film and digitally scanned.

pMAPK = assay: Western blotting of treated LM36R cells, pMAPK; type: cell-based; settings: 0.1-5 μM Indolium 1, 24 hours
Procedure: as §2

EphA3 [3] = assay: ATAC-seq of LM36R tumors, chromatin accessibility; type: in vivo; settings: treated versus vehicle LM36R tumors in mice
Procedure: To gain insights into the mechanisms by which Indolium 1 caused decrease in LM36R tumor volume, we analyzed possible changes in chromatin structure in the tumor cells using ATAC-seq. […] To further explore the effects that Indolium 1 has on cells which could have led to tumor size reduction, LM36R cells were treated with varying concentrations of Indolium 1. […] Beta-tubulin was used to confirm even protein concentrations in each sample.
Experiments reported herein indicate that small molecule, Indolium 1 has activity against vemurafenib resistant BRAF mutant melanoma. Vehicle versus Indolium treated tumors in mice were analyzed for potential biomarkers and for insight into the mechanism of Indolium 1 in vivo. […] EphA3 is a receptor tyrosine kinase which binds ligands ephrinA5 and […]. […] First, inactivating mutations in EphA3 are often found in high grade malignancies. Second, activation of wild type EphA3 causes downregulation of Akt, which has previously been implicated in melanoma progression. […] Finally, a novel antibody based therapeutic directed against EphA3, and therapies that induce EphA3 could sensitize melanoma to anit-EphA3 antibodies.

pAkt = assay: Western blotting of treated LM36R cells, pAkt; type: cell-based; settings: 0.1-5 μM Indolium 1, 24 hours
Procedure: as §2

[4] = parameters: species or system mice; settings: mouse, in vivo
Procedure: The ability to inhibit the growth of vemurafenib resistant melanoma in vivo is unique.
(§3) The xenograft model was developed. A LM36R cell suspension in growth medium was inoculated at 1×10^6 cells/mouse in the right flank of athymic Nu/Nu nude male mice (n=5 per group). MPIB was prepared by dissolving 3.75 mg into 1 mL of ethanol 7. This solution (100 μL) was then diluted to the final concentration in 1 mL of 20% soy-fat Intralipid™ prior to each injection and vortexed vigorously. Vehicle control (ethanol in Intralipid) or MPIB was administered intraperitoneally three times a week at 3 mg/kg/week. MPIB treatment was initiated on the second day after the tumor cell injection, and the tumor volume as well as the weight of the animals were recorded weekly thereafter. Animals were sacrificed and tumors were harvested after tumor volumes reached experimental endpoint as determined by IACUC protocol.

Rb [5] = assay: Immunohistochemistry of in vivo LM36R tumor model, Rb; parameters: species or system mice; settings: treated LM36R tumor tissue versus control tissue
Procedure: as §1

[6] = system: LM36R, a vemurafenib-resistant melanoma cell line; assay: In vivo LM36R xenograft model, tumor volume; parameters: species or system athymic Nu/Nu nude male mice; settings: LM36R 1×10^6 cells/mouse, IP three times a week, 3 mg/kg/week, 4 weeks, N=5/group, p-value=0.03 at week 4
Procedure: Mice were inoculated with LM36R, a vemurafenib-resistant melanoma cell line, at 1×10^6 cells/mouse. Mice were then treated with Indolium via IP administration three times a week at a concentration of 3 mg/kg/week. Tumor growth was compared to control vehicle (sterile water). […] (N=5/group, p-value=0.03) at week 4.
In order to investigate Indolium 1 activity against LM36R, vemurafenib-resistant melanoma cell line, in vivo, 10 mice were inoculated at 1×10^6 cells/mouse. Mice were then treated with indolium 1 via IP administration three times a week at a concentration of 3 mg/kg/week. […] (FIG. 2).
as §3, with “Vehicle control (ethanol in Intralipid) or MPIB was administered intraperitoneally three times a week at 3 mg/kg/week.” left out

3-(bis(4-(diethylamino)phenyl) methylene)-1-methyl-2-phenyl-3H-indol-1-ium [Indolium 1]
EphA3 immunohistochemical staining (EphA3 [1]): more positivity for EPHA3 compared to controls
relative cell viability (LM36R cells): cell death
Nkx3.2 immunohistochemical staining (Nkx3.2): upregulated Nkx3.2 expression
levels of Rb (Western blot) (Rb [2]): decreased with increasing concentrations
pMAPK levels (Western blot) (pMAPK): induction of phosphorylated MAP kinase
EphA3 chromatin accessibility (ATAC-seq) (EphA3 [3]): one of the most upregulated genes in terms of chromatin accessibility
pAkt levels (Western blot) (pAkt): induction
tolerability [4]: well tolerated
Rb immunohistochemical staining (Rb [5]): less Rb compared with control tissue
tumor volume versus control [6]: potent in vivo activity against LM36R; also recorded: significant reduction of tumor volume; also recorded: reduced tumor volume over 4 weeks
